Results as given in patent US20090099243A1, “ORGANIC COMPOUNDS” (priority 2007, published 2009).

Experiments:
[1] = test system: ethanol self-administration in rats; conditions: icv administration; cited from earlier work
[2] = test system: normal gastric emptying in mice; assay: Normal gastric emptying in mice by Near Infrared FluoRescent (NIRF) imaging; format: in vivo, C57/BI6 mice; conditions: imaging 15 minutes after gavage, vehicle control 70%
Description: The effect of Example 33, (−)-1-(3,5-Dimethyl-isoxazol-4-yl)-3-{4-[2-(S)-2,5-dioxo-4-phenyl-4-propyl-imidazolidin-1-yl)-acetyl]-3-fluoro-phenyl}-urea, on normal gastric emptying in mice is assessed by means of Near Infrared FluoRescent (NIRF) imaging. The NIRF method is described in detail in the publication by Gremlich et al (J. Mol. Imaging, 2004, 3(4), 303-311). In short, C57/BI6 mice are gavaged 0.2 ml test meal (Isosource Standard meal, Novartis Medical Nutrition, Germany) that contains 7.5 g methylcellulose and 5 g Tentagel fluorescent beads (TentaGel MB-NH2, particle size […], capacity 0.2-0.3 mmol/g; Rapp Polymere, Tubingen, Germany) per 100 ml and immediately returned to their cages. 15 minutes after the gavage mice are anaesthetized using isoflurane and prepared for NIRF imaging. Images from the gastric and intestinal areas are taken and the percentage of food emptied from the stomach is calculated as the ratio of fluorescence measured in the intestines and the stomach. Example 33 was dissolved in 1-methyl-2-pyrrolidon, polyethyleenglycol-300 and 5% dextrose solution (w/v) in the following proportion (v/v): 10%, 30% and 60% respectively and injected intraperitoneally 30 minutes before the administration of the test meal. In the vehicle control group (n=6), 70% of the meal was emptied from the stomach.

[3] = target: T1, recombinant human NPY Y2 receptors (Homo sapiens, UniProt P49146); assay: Scintillation proximity [35S]GTPγS binding assay (inhibition of 0.5 nM NPY-stimulated [35S]GTPγS binding); format: biochemical; conditions: 10 μM compound, CHO-C4 membranes, read-out: [%] inhibiton at 10 μM
T1 construct: expressed in transfected cells; host or cells: CHO-C4 cells (membrane preparation)
T1 sequence (P49146 1-381): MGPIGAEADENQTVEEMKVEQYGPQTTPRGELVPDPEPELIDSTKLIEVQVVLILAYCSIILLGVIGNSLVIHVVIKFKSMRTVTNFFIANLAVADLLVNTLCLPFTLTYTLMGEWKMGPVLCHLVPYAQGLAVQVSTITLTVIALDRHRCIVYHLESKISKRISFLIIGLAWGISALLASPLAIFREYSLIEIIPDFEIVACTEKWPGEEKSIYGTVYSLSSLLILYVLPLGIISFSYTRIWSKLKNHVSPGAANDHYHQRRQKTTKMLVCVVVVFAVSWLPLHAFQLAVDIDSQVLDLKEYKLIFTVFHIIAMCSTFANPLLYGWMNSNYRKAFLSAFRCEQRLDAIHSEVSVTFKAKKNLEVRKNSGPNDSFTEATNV
Description: Preparation of Membranes: CHO—C4 cells expressing recombinant human NPY Y2 receptors were used to prepare membranes for the GTPγS assay. Cells were grown to 80-95% confluency on 15-cm (225 cm^2) tissue culture plates. After aspiration of the culture medium, cells were washed twice with 18 ml ice-cold phosphate-buffered saline (PBS), scraped off and suspended in 3 ml ice-cold PBS in pre-cooled centrifuge tubes. The dishes were rinsed with 2 ml ice-cold PBS per dish and the washings were combined with the PBS cell suspension from above. Cells pooled from 5-7 dishes were centrifuged for 5 min at 10,000 rpm (12,000 g) in a Sorvall RC5B centrifuge using an SS34 rotor at 4° C. The cell pellet was resuspended in 5 ml ice-cold buffer (20 mM HEPES, 10 mM EDTA; pH 7.4) by vortexing (2-5 sec), homogenized using a Polytron (step 4 for 20-30 sec), and ice-cold buffer added to 25 ml. The suspension was centrifuged again for 20 min at 18,000 rpm (39,000 g) at 4° C. and the pellet resuspended in 5 ml ice-cold buffer (20 mM HEPES, 0.1 mM EDTA; pH 7.4) by vortexing (2-5 sec), homogenized with a Polytron (step 4 for 10 sec), and ice-cold buffer added to 25 ml. The suspension was centrifuged a third time for 20 min at 18,000 rpm (39,000 g) at 4° C. The pellet was resuspend in 1 ml ice-cold buffer (20 mM Hepes, 0.1 mM EDTA; pH 7.4) by vortexing (5-8 sec). Two to five resuspended pellets were combined and homogenized using a Polytron (step 4 for 15-25 sec). A small aliquot (20-50 μl) was removed for protein determination by the Coomassie Plus Protein Assay Reagent (Pierce) using BSA as standard. The membrane suspension was aliquoted in pre-cooled (on dry ice) Eppendorf tubes (0.25-1 ml/tube affording approximately 0.5-2 mg of membrane protein/tube). The pellets were frozen and stored at −80° C.
Scintillation proximity [^35S]GTPγS binding assay: Frozen membranes from CHO—C4 cells expressing recombinant human NPY Y2 receptors (2 mg for four 96-well plates) were thawed on ice. Thawed membranes were pipetted into 10 ml of assay buffer (20 mM. HEPES, 10 mM MgCl2, 100 mM NaCl, pH 7.4) and homogenized briefly using a Polytron. The final assay mixture was prepared in 96-well microtiter plates (Isoplate Wallac, Perkin Elmer). The composition of the assay mixtures in a final volume of 250 μl per well was as follows: 20 mM HEPES, 10 mM MgCl2, 100 mM NaCl, pH 7.4, 30 μM GDP, 1 mg/ml BSA (added fresh), 5 μg membrane protein, 1.5 mg Wheatgerm agglutinin SPA beads (Amersham), 0.45 nM [^35S]GTPγS (Amersham, SJ1308, 1000 Ci/mmol, stabilized solution), and the test compounds (agonists and/or antagonists) at the appropriate concentrations. The samples were incubated at room temperature for 90 min by shaking, after which the SPA beads were sedimented by centrifugation in an Eppendorf 5804 centrifuge at 2700 rpm for 10 min at room temperature. After 60 min the plates were counted in a TopCount (Canberra). Basal [^35S]GTPγS binding was measured in the absence of agonist (NPY). Non-specific binding was measured in the presence of excess (10 μM) unlabelled GTPγS (Sigma). Nonspecific binding never exceeded 10% of basal binding and was thus not subtracted from the experimental data. Antagonists were tested for the inhibition of 0.5 nM NPY-stimulated [^35S]GTPγS binding. Antagonist inhibition curves were analyzed by non-linear regression using GraphPad Prism software (Version 4.0, GraphPad Software Inc., CA, USA).
Antagonistic activity of compounds of the present invention was examined by the Scintillation proximity [35S]GTPγS binding assay as described above (inhibition of 0.5 nM NPY-stimulated [^35S]GTPγS binding). The table below represents percentages of inhibition at a concentration of 10 μM.

SMILES: N=C(N)NCCC[C@H](NC(=O)CC1(CC(=O)N2CCN(C3c4ccccc4NC(=O)c4ccccc43)CC2)CCCC1)C(=O)NCCn1c(=O)n(-c2ccccc2)n(-c2ccccc2)c1=O (stereo partly drawn) [BIIE0246]
- effect on ethanol self-administration [1]: dose dependently reduced ethanol self-administration

SMILES: CCC[C@@]1(c2ccccc2)NC(=O)N(CC(=O)c2ccc(NC(=O)Nc3c(C)noc3C)cc2F)C1=O [Example 33, (−)-1-(3,5-Dimethyl-isoxazol-4-yl)-3-{4-[2-((S)-2,5-dioxo-4-phenyl-4-propyl-imidazolidin-1-yl)-acetyl]-3-fluoro-phenyl}-urea]
- percentage of the meal emptied from the stomach ([2]; 0.3 mg/kg intraperitoneally 30 minutes before test meal): 80%
- percentage of the meal emptied from the stomach ([2]; 1 mg/kg intraperitoneally 30 minutes before test meal): 81%
- inhibition at 10 µM [3]: 95%

SMILES: Cc1cnn(C)c1CC(=O)Nc1ccc(C(=O)CN2C(=O)NC(c3ccccc3)(c3ccccc3)C2=O)cc1 [Example 49, 2-(2,4-Dimethyl-2H-pyrazol-3-yl)-N-{4-[2-(2,5-dioxo-4,4-diphenyl-imidazolidin-1-yl)-acetyl]-phenyl}-acetamide]
- inhibition at 10 µM [3]: 64%

SMILES: COc1ccc(F)cc1CC(=O)Nc1ccc(C(=O)CN2C(=O)NC(c3ccccc3)(c3ccccc3)C2=O)cc1 [Example 50, N-{4-[2-(2,5-Dioxo-4,4-diphenyl-imidazolidin-1-yl)acetyl]-phenyl}-2-(5-fluoro-2-methoxy-phenyl)-acetamide]
- inhibition at 10 µM [3]: 80%
